# Several values for one entry are separate records, joined by “and”; a condition that tells them apart may be missing. Equal values may be shown once.
# Assay: Pharmacokinetic study in cynomolgus monkeys after oral (nasogastric) gavage, sublingual and intravenous administration
# Format: in vivo
# Settings: monkey
# Description: A pharmacokinetic study was done in cynomolgus monkeys following single oral (nasogastric) gavage, sublingual, and intravenous administration. […] Calibration curves, blanks, and analytical QCs were prepared in monkey plasma (K2EDTA). The extracts were evaporated to dryness, reconstituted, and then analyzed by LC-MS/MS. The calibration range was 0.250-250 ng/mL for both analytes.
# If the criteria for either the calibration curve or the analytical QCs were not met, the analytical run was rejected. […] No deviations were found during the bioanalytical phase of the study conducted by Origin. Calibration curves were derived from the individual analyte to internal standard peak area ratios using the least squared regression of the ratio versus the nominal concentration of the calibration standard, prepared in duplicate. The regression was then used to back-calculate the concentration of each calibration standard, QC sample and study sample. […] Analyst® Software Version 1.6.3 (Applied Biosystems-MDS Sciex), operated with Windows® (Microsoft), was used for instrument control, data acquisition, and peak integrations. Peak area ratios, standard curve regressions, and sample concentration/accuracy values were calculated with Analyst® Software Version 1.6.3. Other results (e.g., mean statistics) were calculated with Excel® (Microsoft).
# There was no apparent sex difference for the second formulation. […] A fourth formulation comprising the composition B listed in Table 54 was also administered in monheys.
smiles,measurement,setting,value
"CCCCNc1cc(C(=O)N(Cc2ccccc2)Cc2ccccc2)cc(S(N)(=O)=O)c1Oc1ccccc1 [Bumetanide Dibenzylamide, N, N-dibenzyl 3-aminosulfonyl-5-butylamino-4-phenoxybenzamide]",concentration at 2 h,"cynomolgus monkey, plasma, other: sublingual, 5 mg/kg, Plasma Bumetanide Dibenzylamide concentration, Median, SL, dose column 5 mg/kg (title 30 mg/kg), Fourth Formulation (Form 2), 2.0 h, N=4",0 ng/mL
same,concentration at 4 h,"cynomolgus monkey, plasma, other: sublingual, 5 mg/kg, Plasma Bumetanide Dibenzylamide concentration, Median, SL, dose column 5 mg/kg (title 30 mg/kg), Fourth Formulation (Form 2), 4.0 h, N=4",0 ng/mL
same,concentration at 8 h,"cynomolgus monkey, plasma, other: sublingual, 5 mg/kg, Plasma Bumetanide Dibenzylamide concentration, Median, SL, dose column 5 mg/kg (title 30 mg/kg), Fourth Formulation (Form 2), 8.0 h, N=4",0.505 ng/mL
same,concentration at 24 h,"cynomolgus monkey, plasma, other: sublingual, 5 mg/kg, Plasma Bumetanide Dibenzylamide concentration, Median, SL, dose column 5 mg/kg (title 30 mg/kg), Fourth Formulation (Form 2), 24.0 h, N=4",0.182 ng/mL
same,concentration at 32 h,"cynomolgus monkey, plasma, other: sublingual, 5 mg/kg, Plasma Bumetanide Dibenzylamide concentration, Median, SL, dose column 5 mg/kg (title 30 mg/kg), Fourth Formulation (Form 2), 32.0 h, N=4",0 ng/mL
same,concentration at 0 h,"cynomolgus monkey, plasma, other: sublingual, 5 mg/kg, Plasma Bumetanide Dibenzylamide concentration, SL, dose column 5 mg/kg (title 30 mg/kg), Fourth Formulation (Form 2), 0.00 h, individual animals",0 ng/mL
same,concentration at 0.25 h,"cynomolgus monkey, plasma, other: sublingual, 5 mg/kg, Plasma Bumetanide Dibenzylamide concentration, SL, dose column 5 mg/kg (title 30 mg/kg), Fourth Formulation (Form 2), 0.25 h, individual animals",0 ng/mL
same,concentration at 0.5 h,"cynomolgus monkey, plasma, other: sublingual, 5 mg/kg, Plasma Bumetanide Dibenzylamide concentration, SL, dose column 5 mg/kg (title 30 mg/kg), Fourth Formulation (Form 2), 0.50 h, individual animals",0 ng/mL
same,concentration at 1 h,"cynomolgus monkey, plasma, other: sublingual, 5 mg/kg, Plasma Bumetanide Dibenzylamide concentration, SL, dose column 5 mg/kg (title 30 mg/kg), Fourth Formulation (Form 2), 1.0 h, individual animals",0 ng/mL
same,concentration at 0.08 h,"cynomolgus, cynomolgus monkey, plasma, intravenous, 2 mg/kg, Plasma Bumetanide Dibenzylamide concentration, Median, dose column 2 mg/kg (title 30 mg/kg), Third Formulation (Form 4), 0.08 h, N=4",1370 ng/mL
same,concentration at 0.5 h,"cynomolgus, cynomolgus monkey, plasma, intravenous, 2 mg/kg, Plasma Bumetanide Dibenzylamide concentration, Median, dose column 2 mg/kg (title 30 mg/kg), Third Formulation (Form 4), 0.50 h, N=4",672 ng/mL
same,concentration at 1 h,"cynomolgus, cynomolgus monkey, plasma, intravenous, 2 mg/kg, Plasma Bumetanide Dibenzylamide concentration, Median, dose column 2 mg/kg (title 30 mg/kg), Third Formulation (Form 4), 1.00 h, N=4",504 ng/mL
same,concentration at 2 h,"cynomolgus, cynomolgus monkey, plasma, intravenous, 2 mg/kg, Plasma Bumetanide Dibenzylamide concentration, Median, dose column 2 mg/kg (title 30 mg/kg), Third Formulation (Form 4), 2.00 h, N=4",297 ng/mL
same,concentration at 4 h,"cynomolgus, cynomolgus monkey, plasma, intravenous, 2 mg/kg, Plasma Bumetanide Dibenzylamide concentration, Median, dose column 2 mg/kg (title 30 mg/kg), Third Formulation (Form 4), 4.00 h, N=4",109 ng/mL
same,concentration at 8 h,"cynomolgus, cynomolgus monkey, plasma, intravenous, 2 mg/kg, Plasma Bumetanide Dibenzylamide concentration, Median, dose column 2 mg/kg (title 30 mg/kg), Third Formulation (Form 4), 8.00 h, N=4",27.2 ng/mL
same,concentration at 24 h,"cynomolgus, cynomolgus monkey, plasma, intravenous, 2 mg/kg, Plasma Bumetanide Dibenzylamide concentration, Median, dose column 2 mg/kg (title 30 mg/kg), Third Formulation (Form 4), 24.00 h, N=4",2.62 ng/mL
same,concentration at 32 h,"cynomolgus, cynomolgus monkey, plasma, intravenous, 2 mg/kg, Plasma Bumetanide Dibenzylamide concentration, Median, dose column 2 mg/kg (title 30 mg/kg), Third Formulation (Form 4), 32.00 h, N=4",0.917 ng/mL
same,Plasma Bumetanide Dibenzylamide concentration,"IV, dose column 2 mg/kg (title 30 mg/kg), Third Formulation (Form 4), 0.08 h, individual animals",1430 ng/mL and 1160 ng/mL and 1310 ng/mL
same,Plasma Bumetanide Dibenzylamide concentration,"IV, dose column 2 mg/kg (title 30 mg/kg), Third Formulation (Form 4), 0.50 h, individual animals",757 ng/mL and 555 ng/mL and 626 ng/mL
same,Plasma Bumetanide Dibenzylamide concentration,"IV, dose column 2 mg/kg (title 30 mg/kg), Third Formulation (Form 4), 1.00 h, individual animals",536 ng/mL and 472 ng/mL and 385 ng/mL
same,Plasma Bumetanide Dibenzylamide concentration,"IV, dose column 2 mg/kg (title 30 mg/kg), Third Formulation (Form 4), 2.00 h, individual animals",316 ng/mL and 278 ng/mL and 214 ng/mL
same,Plasma Bumetanide Dibenzylamide concentration,"IV, dose column 2 mg/kg (title 30 mg/kg), Third Formulation (Form 4), 4.00 h, individual animals",87.8 ng/mL and 129 ng/mL and 89.3 ng/mL
same,Plasma Bumetanide Dibenzylamide concentration,"IV, dose column 2 mg/kg (title 30 mg/kg), Third Formulation (Form 4), 8.00 h, individual animals",51.4 ng/mL and 26.6 ng/mL and 27.7 ng/mL and 17.2 ng/mL
same,Plasma Bumetanide Dibenzylamide concentration,"IV, dose column 2 mg/kg (title 30 mg/kg), Third Formulation (Form 4), 24.00 h, individual animals",3.95 ng/mL and 0.942 ng/mL and 8.10 ng/mL and 1.28 ng/mL
same,Plasma Bumetanide Dibenzylamide concentration,"IV, dose column 2 mg/kg (title 30 mg/kg), Third Formulation (Form 4), 32.00 h, individual animals",1.47 ng/mL and 0.303 ng/mL and 3.80 ng/mL and 0.363 ng/mL
same,Plasma Bumetanide Dibenzylamide concentration,"NG 30 mg/kg, First Formulation (Form 1), 0.00 h, individual animals, female monkeys",0.00 ng/mL
same,Plasma Bumetanide Dibenzylamide concentration,"NG 30 mg/kg, First Formulation (Form 1), 0.00 h, individual animals, male monkeys",0.00 ng/mL
same,Plasma Bumetanide Dibenzylamide concentration,"NG 30 mg/kg, First Formulation (Form 1), 0.25 h, individual animals, female monkeys",0.992 ng/mL and 0.398 ng/mL
same,Plasma Bumetanide Dibenzylamide concentration,"NG 30 mg/kg, First Formulation (Form 1), 0.25 h, individual animals, male monkeys",0.932 ng/mL and 14.9 ng/mL
same,Plasma Bumetanide Dibenzylamide concentration,"NG 30 mg/kg, First Formulation (Form 1), 0.50 h, individual animals, female monkeys",1.66 ng/mL and 1.18 ng/mL
same,Plasma Bumetanide Dibenzylamide concentration,"NG 30 mg/kg, First Formulation (Form 1), 0.50 h, individual animals, male monkeys",3.97 ng/mL and 16.8 ng/mL
same,Plasma Bumetanide Dibenzylamide concentration,"NG 30 mg/kg, First Formulation (Form 1), 1.00 h, individual animals, female monkeys",8.08 ng/mL and 3.01 ng/mL
same,Plasma Bumetanide Dibenzylamide concentration,"NG 30 mg/kg, First Formulation (Form 1), 1.00 h, individual animals, male monkeys",12.1 ng/mL and 29.7 ng/mL
